Experimental data: US12049445B2, “Compounds having S1P5 receptor agonistic activity” (ONO PHARMACEUTICAL CO., LTD., priority 2018, dated 2024)
Counter-ions that a name gives are not always drawn.

Experiments:
human S1P1 (EDG-1) [1] = target: T1, human S1P1 (EDG-1) (Homo sapiens, UniProt P21453); experiment: S1P receptor agonist activity by monitoring intracellular calcium concentration (S1P1); type: cell-based; settings: for EC50: CHO cells overexpressing human S1P1 (EDG-1) gene, intracellular calcium increase, S1P signal = 100% activity
Experimental: (§1) Chinese hamster ovary (CHO) cells in which each of a human S1P1 (EDG-1) gene or a human S1P5 (EDG-8) gene was overexpressed were cultured in Ham's F-12 medium containing 10% FBS (fetal bovine serum), penicillin/streptomycin, and geneticin (0.25 mg/mL). The culture medium was replaced one day before performing a calcium assay and on the day of the assay. Four hours after the culture medium replacement, the culture medium was removed, and washing was performed once with phosphate-buffered saline. After the cells were detached by adding 0.05% trypsin EDTA, the cells were recovered by adding a culture medium. The recovered cell suspension was centrifuged to remove the supernatant, and the cells were suspended in phosphate-buffered saline, and the cell number was counted. The cells were suspended in a Hanks solution containing Calcium 6 Assay Reagent (manufactured by Molecular Devices, LLC), 20 mM HEPES, and 2.5 mM probenecid at a cell density of 1.1×10^6 cells/mL, and the suspension was incubated at 37° C. for about 1 hour. Thereafter, the supernatant was removed by centrifugation, and the cells were suspended in a Hanks solution containing 20 mM HEPES, 2.5 mM probenecid, and 0.1% BSA at a cell density of 2.2×10^6 cells/mL. The suspension was inoculated in a 96-well plate at 80 μL/well. The plate was set on a fluorescent drug screening system (FDSS 6000), and the compound and S1P were sequentially added thereto, and an increase in intracellular calcium concentration between before and after the addition was measured at an excitation wavelength of 480 nm and a fluorescence wavelength of 540 nm. The increase in intracellular calcium concentration was evaluated by the signal intensity at the fluorescence wavelength, and the agonist activity of each compound was calculated by assuming the signal intensity when S1P was added instead of the compound to be 100% activity.

human S1P5 (EDG-8) = human S1P5 (EDG-8) (Homo sapiens, UniProt Q9H228); experiment: S1P receptor agonist activity by monitoring intracellular calcium concentration (S1P5); type: cell-based; settings: for EC50: CHO cells overexpressing human S1P5 (EDG-8) gene, intracellular calcium increase, S1P signal = 100% activity; for balance of S1P5 receptor agonist activity against S1P1 receptor agonist activity (in words): comparison of calcium assay agonist activities at S1P1 and S1P5
Experimental: as §1

human S1P1 (EDG-1) [2] = target: T1, human S1P1 (EDG-1); experiment: Inhibition of binding of [33P]-S1P to S1P1, CHO membrane fraction; settings: membrane fraction of CHO cells overexpressing human S1P1; room temperature 60 minutes; read-out: inhibitory activity (IC50 value) for binding of [33P]-S1P to S1P1
Experimental: (§2) A reaction was carried out in a 96-well microplate by using a membrane fraction of Chinese hamster ovary (CHO) cells each of which was made to overexpress human S1P1 (EDG-1) gene or human S1P5 gene respectively, in an amount of the membrane fraction of 60 μg protein/mL. To each of the well, 100 μL of a vehicle (DMSO) solution or a compound solution at a two-fold concentration each diluted with Binding Buffer (50 mmol/L Tris pH 7.5, 5 mmol/L MgCl2, 0.5% BSA, Complete EDTA free (1 tablet/50 mL)) and 50 μL of 0.16 nmol/L [^33P]-S1P (manufactured by American Radiolabeled Chemicals, Inc.) diluted with Binding Buffer were added, and thereafter, the membrane fraction solution (50 μL) was added thereto, and a reacted was allowed to proceed at room temperature for 60 minutes. After the reaction, suction filtration was carried out by using a 96-well Unifilter, followed by washing with a washing buffer (50 mmol/L Tris pH 7.5, 0.5% BSA) ([…]), and then dried at 50 to 60° C. for 30 to 60 minutes. MicroScint (trade name) 20 (50 μL/well) was added thereto, and the plate was covered with TopSeal-A, and then a radioactivity was measured with TopCount (manufactured by PerkinElmer Co., Ltd.)
(§3) The compound concentration at which 50% of the specific binding of [^33P]-S1P to human S1P1 and human S1P5 was replaced (IC50 value) was used as an evaluation item. […]

human S1P5 = target: T2, human S1P5 (Homo sapiens, UniProt Q9H228); experiment: Inhibition of binding of [33P]-S1P to S1P5, CHO membrane fraction; settings: membrane fraction of CHO cells overexpressing human S1P5; room temperature 60 minutes; read-out: inhibitory activity (IC50 value) for binding of [33P]-S1P to S1P5
T2 construct: expressed in transfected cells; host or cells: membrane fraction of Chinese hamster ovary (CHO) cells
Experimental: as §2, §3

T1 sequence (P21453 whole entry): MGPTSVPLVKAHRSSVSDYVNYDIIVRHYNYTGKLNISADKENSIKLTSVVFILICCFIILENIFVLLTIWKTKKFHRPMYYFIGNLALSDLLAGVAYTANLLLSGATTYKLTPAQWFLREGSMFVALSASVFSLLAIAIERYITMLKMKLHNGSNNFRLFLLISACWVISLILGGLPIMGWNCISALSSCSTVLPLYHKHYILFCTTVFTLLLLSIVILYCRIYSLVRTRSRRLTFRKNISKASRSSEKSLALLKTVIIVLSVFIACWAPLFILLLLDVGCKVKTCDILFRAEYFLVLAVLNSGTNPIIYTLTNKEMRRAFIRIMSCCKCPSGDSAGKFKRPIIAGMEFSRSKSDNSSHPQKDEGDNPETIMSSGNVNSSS
Sequence of human S1P5 (EDG-8) (Q9H228 whole entry): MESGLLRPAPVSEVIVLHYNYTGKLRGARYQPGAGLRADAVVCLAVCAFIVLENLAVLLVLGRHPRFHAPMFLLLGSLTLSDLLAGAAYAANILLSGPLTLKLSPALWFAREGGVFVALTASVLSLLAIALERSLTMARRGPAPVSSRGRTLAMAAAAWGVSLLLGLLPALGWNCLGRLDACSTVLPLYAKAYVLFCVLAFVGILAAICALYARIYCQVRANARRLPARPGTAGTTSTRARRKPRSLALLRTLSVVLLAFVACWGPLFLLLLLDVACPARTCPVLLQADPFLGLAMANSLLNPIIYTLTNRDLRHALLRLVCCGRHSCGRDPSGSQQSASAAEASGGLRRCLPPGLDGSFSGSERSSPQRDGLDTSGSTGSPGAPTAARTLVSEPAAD
T2 sequence (Q9H228 whole entry): as above

Compound	EC50 (human S1P1 (EDG-1) [1])	EC50 (human S1P5 (EDG-8))	other results
CC1=C(CNCCC(=O)O)CCc2cc(OCCCC3CCCCC3)ccc21 [Comparative Compound C, 3-({[6-(3-cyclohexylpropoxy)-1-methyl-3,4-dihydro-2-naphthalenyl]methyl}amino)propanoic acid hydrochloride]	–	–	IC50 (human S1P1 (EDG-1) [2]): 1 nM; IC50 (human S1P5): 8.5 nM
COc1ccc2c(c1)C[C@H](C)C(CN1CC(F)(C(=O)O)C1)=C2 [Comparative Example, (S)-3-fluoro-1-[(6-methoxy-3-methyl-3,4-dihydronaphthalen-2-yl)methyl]azetidine-3-carboxylic acid, reference compound]	> 10000 nM	> 10000 nM	S1P1 receptor agonist activity (in words) (human S1P1 (EDG-1) [1]; calcium assay, CHO cells overexpressing human S1P1): did not have; S1P5 receptor agonist activity (in words) (human S1P5 (EDG-8); calcium assay, CHO cells overexpressing human S1P5): did not have
C[C@H]1Cc2cc(OCCCC(F)(F)F)ccc2C=C1CN1CC(C(=O)O)C1 [Example 15 (34), 1-[[(3S)-3-methyl-6-(4,4,4-trifluorobutoxy)-3,4-dihydronaphthalen-2-yl]methyl]azetidine-3-carboxylic acid]	> 3000 nM	20 nM	–
C[C@H]1Cc2cc(OCCC(F)=C(F)F)ccc2C=C1CN1CC(F)(C(=O)O)C1 [Example 15 (52), 3-fluoro-1-[[(3S)-3-methyl-6-(3,4,4-trifluorobut-3-enoxy)-3,4-dihydronaphthalen-2-yl]methyl]azetidine-3-carboxylic acid]	> 3000 nM	15 nM	–
[2H]C([2H])([2H])C([2H])([2H])C([2H])([2H])C([2H])([2H])Oc1ccc2c(c1)C[C@H](C)C(CN1CC(C(=O)O)C1)=C2 [Example 15 (70), 1-[[(3S)-3-methyl-6-(1,1,2,2,3,3,4,4,4-nonadeuteriobutoxy)-3,4-dihydronaphthalen-2-yl]methyl]azetidine-3-carboxylic acid]	> 3000 nM	12 nM	–
C[C@H]1Cc2cc(OCCCC(F)(F)F)ccc2C=C1CN1CC[C@@H](C(=O)O)C1 [Example 15 (72), (3R)-1-[[(3S)-3-methyl-6-(4,4,4-trifluorobutoxy)-3,4-dihydronaphthalen-2-yl]methyl]pyrrolidine-3-carboxylic acid]	> 3000 nM	22 nM	–
C[C@H]1Cc2cc(OC/C=C/C(F)(F)F)ccc2C=C1CN1CC(F)(C(=O)O)C1 [Example 15 (82), 3-fluoro-1-[[(3S)-3-methyl-6-[(E)-4,4,4-trifluorobut-2-enoxy]-3,4-dihydronaphthalen-2-yl]methyl]azetidine-3-carboxylic acid]	> 30000 nM	9 nM	–
C[C@H]1Cc2cc(OCCC(F)(F)F)ccc2C=C1CN1CC(F)(C(=O)O)C1 [Example 15 (86), 3-fluoro-1-{[(3S)-3-methyl-6-(3,3,3-trifluoropropoxy)-3,4-dihydro-2-naphthalenyl]methyl}-3-azetidinecarboxylic acid]	> 30000 nM	26 nM	–
CCCCCOc1ccc2c(c1)C[C@H](C)C(CN1CC(C(=O)O)C1)=C2 [Example 15, 1-[((3S)-3-methyl-6-pentoxy-3,4-dihydronaphthalen-2-yl)methyl]azetidine-3-carboxylic acid]	> 3000 nM	3 nM	–
CC(N[C@H]1C[C@@H](C(=O)O)C1)C1=Cc2ccc(OCCCC(F)(F)F)cc2C[C@@H]1C (stereo partly drawn) [Example 47 (2), cis-3-({1-[(3S)-3-methyl-6-(4,4,4-trifluorobutoxy)-3,4-dihydro-2-naphthalenyl]ethyl}amino)cyclobutanecarboxylic acid]	> 30000 nM	1100 nM	–

Second part, led by results:

EC50 (human S1P1 (EDG-1) [1])	EC50 (human S1P5 (EDG-8))	Compound	other results
< 3 nM	3 nM	CCCCCCCCOc1ccc2c(c1)CCC(CN1CC(C(=O)O)C1)=C2C.Cl [Comparative Compound A, 1-{[1-methyl-6-(octyloxy)-3,4-dihydro-2-naphthalenyl]methyl}-3-azetidinecarboxylic acid hydrochloride, reference compound]	balance of S1P5 receptor agonist activity against S1P1 receptor agonist activity (in words) (human S1P5 (EDG-8)): S1P1 receptor agonist activity was stronger than the S1P5 receptor agonist activity
0.2 nM	2 nM	CCCc1ccc(COc2ccc3c(c2)CCC(CN2CC(C(=O)O)C2)=C3C)c(OC)c1 [Comparative Compound B, 1-({6-[(2-methoxy-4-propylbenzyl)oxy]-1-methyl-3,4-dihydro-2-naphthalenyl}methyl)-3-azetidinecarboxylic acid, reference compound]	balance of S1P5 receptor agonist activity against S1P1 receptor agonist activity (in words) (human S1P5 (EDG-8)): S1P1 receptor agonist activity was stronger than the S1P5 receptor agonist activity
> 30000 nM	98 nM	CCCOCc1ccc2c(c1)C[C@H](C)C(CN1CC(C(=O)O)C1)=C2 [Example 57 (2), 1-{[(3S)-3-methyl-6-(propoxymethyl)-3,4-dihydro-2-naphthalenyl]methyl}-3-azetidinecarboxylic acid]	–
